Source: patent US8440654B2, “Thieno- and furo-pyrimidine modulators of the histamine H4 receptor” (Janssen Pharmaceutica NV, priority 2007, dated 2013)
Where a name gives a salt, the structure may show the parent alone.

Each compound was assayed against T1, human histamine H4 receptor (Homo sapiens, UniProt Q9H3N8) (assay: Binding Assay on Recombinant Human Histamine H4 Receptor). Details: competition binding with 3H-histamine, membranes of SK-N-MC or COS7 cells transfected with human H4R; average of results obtained.
T1 construct: expressed in transfected cells; host or cells: SK-N-MC cells or COS7 cells, transiently transfected with pH4R; membrane preparation
Procedure: Biological Methods: Binding Assay on Recombinant Human Histamine H4 Receptor.
SK-N-MC cells or COS7 cells were transiently transfected with pH4R and grown in 150 cm^2 tissue culture dishes. Cells were washed with saline solution, scraped with a cell scraper and collected by centrifugation (1000 rpm, 5 min). Cell membranes were prepared by homogenization of the cell pellet in 20 mM Tris-HCl with a polytron tissue homogenizer for 10 sec at high speed. Homogenate was centrifuged at 1000 rpm for 5 min at 4° C. The supernatant was then collected and centrifuged at 20,000×g for 25 min at 4° C. The final pellet was resuspended in 50 mM Tris-HCl. Cell membranes were incubated with ^3H-histamine (5-70 nM) in the presence or absence of excess histamine (10,000 nM). Incubation occurred at room temperature for 45 min. Membranes were harvested by rapid filtration over Whatman GF/C filters and washed 4 times with ice-cold 50 mM Tris HCl. Filters were then dried, mixed with scintillant and counted for radioactivity. SK-N-MC or COS7 cells expressing human histamine H4 receptor were used to measure the affinity of binding of other compounds and their ability to displace ^3H-ligand binding by incubating the above-described reaction in the presence of various concentrations of inhibitor or compound to be tested. For competition binding studies using ^3H-histamine, K values were calculated, based on an experimentally determined KD value of 5 nM and a ligand concentration of 5 nM, according to Y.-C.

Ki [µM] | Structure (SMILES)
> 10 | NCCNc1ncnc2c3c(oc12)CCCC3 [Example 27, N-(6,7,8,9-Tetra-hydro[1]benzofuro[3,2-d]pyrimidin-4-yl]ethane-1,2-diamine]
0.123 | Nc1nc(N2CCC[C@H](N)C2)c2sc3c(c2n1)CCCC3 [Example 34, 4-[(3S)-3-Aminopiperidin-1-yl]-6,7,8,9-tetrahydro[1]ben-zothieno[3,2-d]pyrimidin-2-amine]
0.015 | Nc1nc(N2CCCNCC2)c2sc3c(c2n1)CCCC3 [Example 37, 4-(1,4-Diazepan-1-yl)-6,7,8,9-tetrahydro[1]benzo-thieno[3,2-d]pyrimidin-2-amine hydrochloric acid salt]
0.062 | CN(C)[C@@H]1CCN(c2nc(N)nc3c4c(sc23)CCCC4)C1 [Example 39, 4-[(3R)-3-(Dimethyl-amino)pyrrolidin-1-yl]-6,7,8,9-tetrahydro[1]benzo-thieno[3,2-d]pyrimidin-2-amine trifluoroacetic acid salt]
1.01 | NC[C@H]1CCN(c2nc(N)nc3c4c(sc23)CCCC4)C1 [Example 41, 4-[(3R)-3-(Amino-methyl)pyrrolidin-1-yl]-6,7,8,9-tetrahydro[1]benzo-thieno[3,2-d]pyrimidin-2-amine trifluoroacetic acid salt]
0.467 | Nc1nc(N2CC(N)C2)c2sc3c(c2n1)CCCC3 [Example 42, 4-(3-Aminoazetidin-1-yl)-6,7,8,9-tetrahydro[1]benzo-thieno[3,2-d]pyrimidin-2-amine trifluoroacetic acid salt]
0.007 | CC1CCc2sc3c(N4CCN(C)CC4)nc(N)nc3c2C1 (centres unmarked) [Example 43, 8-Methyl-4-(4-methyl-piperazin-1-yl)-6,7,8,9-tetrahydro[1]benzo-thieno[3,2-d]pyrimidin-2-amine trifluoroacetic acid salt]
0.011 | CN[C@H]1CCN(c2nc(N)nc3c4c(sc23)CCC(C)C4)C1 (stereo partly drawn) [Example 44, 8-Methyl-4-[(3R)-3-(methyl-amino)pyrrolidin-1-yl]-6,7,8,9-tetrahydro[1]benzo-thieno[3,2-d]pyrimidin-2-amine trifluoroacetic acid salt]
0.647 | CC(C)N1CCN(c2nc(N)nc3c4c(sc23)CCCC4)CC1 [Example 50, 4-[4-(1-Methylethyl)piper-azin-1-yl]-6,7,8,9-tetrahy-dro[1]benzothieno[3,2-d]pyrimidin-2-amine trifluoroacetic acid salt]
0.205 | CCN1CCN(c2nc(N)nc3c4c(sc23)CCCC4)CC1 [Example 51, 4-(4-Ethylpiperazin-1-yl)-6,7,8,9-tetrahydro[1]benzo-thieno[3,2-d]pyrimidin-2-amine trifluoroacetic acid salt]
1.61 | Nc1nc(N2CCn3cnnc3C2)c2sc3c(c2n1)CCCC3 [Example 54, 4-(5,6-Dihydro[1,2,4-a]pyrazin-7(8H)-yl)-6,7,8,9-tetrahydro[1]benzothieno[3,2-d]pyrimidin-2-amine trifluoroacetic acid salt]
0.033 | CN[C@H]1CCN(c2nc(N)nc3c4c(sc23)CCCC4)C1 [Example 55, 4-[(3S)-3-(Methyl-amino)pyrrolidin-1-yl]-6,7,8,9-tetrahydro[1]benzo-thieno[3,2-d]pyrimidin-2-amine trifluoroacetic acid salt]
0.023 | CN1CCN(c2nc(N)nc3c4c(sc23)CCC(F)(F)C4)CC1 [Example 57, 8,8-Difluoro-4-(4-methyl-piperazin-1-yl)-6,7,8,9-tetrahydro[1]benzothieno[3,2-d]pyrimidin-2-amine trifluoroacetic acid salt]
0.014 | Nc1nc(N2CCNCC2)c2sc3c(c2n1)CC(F)(F)CC3 [Example 58, 8,8-Difluoro-4-piperazin-1-yl-6,7,8,9-tetrahydro[1]ben-zothieno[3,2-d]pyrimidin-2-amine trifluoroacetic acid salt]
0.009 | CN[C@@H]1CCN(c2nc(N)nc3c4c(sc23)CCC(F)(F)C4)C1 [Example 59, 8,8-Difluoro-4-[(3R)-3-(methylamino)pyrrolidin-1-yl]-6,7,8,9-tetrahydro[1]benzothieno[3,2-d]pyrimidin-2-amine trifluoroacetic acid salt]

Structure (SMILES) | Ki [µM]
Nc1nc(N2CC3CCC(C2)N3)c2oc3c(c2n1)CCCC3 [Example 26, 4-(3,8-Diazabi-cyclo[3.2.1]oct-3-yl)-6,7,8,9-tetrahydro[1]benzofuro[3,2-d]pyrimidin-2-amine] | 0.032
Nc1nc(N2C[C@H]3CCCN[C@H]3C2)c2sc3c(c2n1)CCCC3 [Example 32, 4-[(4aR,7aR)-Octahydro-6H-pyrrolo[3,4-b]pyridin-6-yl]-6,7,8,9-tetrahydro[1]benzo-thieno[3,2-,d]pyrimidin-2-amine] | 0.002
Nc1nc(N2C[C@H]3CNC[C@H]3C2)c2sc3c(c2n1)CCCC3 [Example 33] | 0.39
Nc1nc(N2C[C@H]3C[C@@H]2CN3)c2sc3c(c2n1)CCCC3 [Example 36, 4-[(1R,4R)-2,5-Diazabicy-clo[2.2.1]hept-2-yl]-6,7,8,9-tetrahydro[1]benzothi-eno[3,2-d]pyrimidin-2-amine] | > 10
CN[C@@H]1CN(c2nc(N)nc3c4c(sc23)CCCC4)C[C@@H]1O [Example 38, (3S,4S)-1-(2-Amino-6,7,8,9-tetrahydro[1]benzothieno[3,2-d]pyrimidin-4-yl)-4-(methyl-amino)pyrrolidin-3-of tri-fluoroacetic acid salt] | 0.3
CC1CCc2sc3c(N4C[C@H]5CCCN[C@H]5C4)nc(N)nc3c2C1 (stereo partly drawn) [Example 45, 8-Methyl-4-[(4aR,7aR)-octa-hydro-6H-pyrrolo-[3,4-b]pyridin-6-yl]-6,7,8,9-tetra-hydro[1]benzothieno[3,2-d]pyrimidin-2-amine trifluoroacetic acid salt] | 0.004
CN1CCN(c2nc(N)nc3c4c(sc23)CCCCC4)CC1 [Example 46, 4-(4-Methylpiperazin-1-yl)-7,8,9,10-tetrahydro-6H-cyclohepta[4,5]thieno[3,2-d]pyrimidin-2-amine tri-fluoroacetic acid salt] | 0.021
Nc1nc(N2C[C@H]3CCCN[C@H]3C2)c2sc3c(c2n1)CCCCC3 [Example 48, 4-[(4aR,7aR)-Octahydro-6H-pyrrolo[3,4-b]pyridin-6-yl]-7,8,9,10-tetrahydro-6H-cyclohepta[4,5-d]pyrimidin-2-amine trifluoroacetic acid salt] | 0.003
NCCN1CCN(c2nc(N)nc3c4c(sc23)CCCC4)CC1 [Example 49, 4-[4-(2-Aminoethyl)piper-azin-1-yl]-6,7,8,9-tetrahy-dro[1]benzothieno[3,2-d]pyrimidin-2-amine tri-fluoroacetic acid salt] | 2.26
Nc1nc(N2CCN3CCCC3C2)c2sc3c(c2n1)CCCC3 (centres unmarked) [Example 52, 4-(Hexahydropyrrolo[1,2-a]pyrazin-2(1H)-yl-6,7,8,9-tetrahydro[1]benzothieno[3,2-d]pyrimidin-2-aminetrifluoroacetic acid salt] | 0.067
Nc1nc(N2CCN3CCCCC3C2)c2sc3c(c2n1)CCCC3 (centres unmarked) [Example 53, 4-(Octahydro-2H-pyrido[1,2-a]pyrazin-2-yl)-6,7,8,9-tetrahydro[1]benzothieno-3,2-d]pyrimidin-2-amine trifluoroacetic acid salt] | 0.387
